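Interpolation was linear, between the two tested concentrations surrounding the appropriate level; five concentrations were tested over 48 hours in 96-well plates. GI50 = concentration required for 50% inhibition of growth. TGI: concentration producing complete growth inhibition.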
Columns and labels:
Test in all cases: NCI tumour cell line growth inhibition, 48 h
[1] = test system: NCI-H226 lung
[2] = test system: NCI-H460 lung
[3] = test system: NCI-H522 lung
[4] = test system: NCI/ADR-RES ovarian
[5] = test system: OVCAR-3 ovarian
[6] = test system: OVCAR-4 ovarian
[7] = test system: OVCAR-5 ovarian
[8] = test system: OVCAR-8 ovarian
[9] = test system: PC-3 prostate
[10] = test system: RPMI-8226 leukemia
[11] = test system: RXF 393 renal
[12] = test system: SF-268 CNS
[13] = test system: SF-295 CNS
[14] = test system: SF-539 CNS
[15] = test system: SK-MEL-2 melanoma
[16] = test system: SK-MEL-28 melanoma
[17] = test system: SK-MEL-5 melanoma
[18] = test system: SK-OV-3 ovarian
[19] = test system: SN12C renal
[20] = test system: SNB-19 CNS
[21] = test system: SNB-75 CNS
[22] = test system: SR leukemia
[23] = test system: SW-620 colon
[24] = test system: T-47D breast
[25] = test system: TK-10 renal
[26] = test system: U251 CNS
[27] = test system: UACC-257 melanoma
[28] = test system: UACC-62 melanoma
[29] = test system: UO-31 renal

Work on `Cc1cc2c(-c3ccc(NC(=O)[C@H](N)CC(C)(C)C)cc3C)ccnc2[nH]1` yielded a TGI [1] of 27.2 µM, a GI50 [2] of 5.7 µM and a TGI [2] of 19 µM. The GI50 [3] was 13 µM, the TGI [3] was 26.3 µM and the GI50 [4] was 13.4 µM. It also gave a TGI [4] of 35.8 µM, a GI50 [5] of 11.6 µM and a TGI [5] of 24.8 µM. The GI50 [6] was 6.95 µM, the TGI [6] was 20.8 µM and the GI50 [7] was 10.4 µM. The TGI [7] was 22.3 µM, the GI50 [8] was 13.6 µM and the TGI [8] was 28 µM. The GI50 [9] was 7.91 µM, the TGI [9] was 22.1 µM and the GI50 [10] was 2.77 µM. The TGI [10] was 7.82 µM, the GI50 [11] was 3.68 µM and the TGI [11] was 16 µM. It also gave a GI50 [12] of 11.1 µM, a TGI [12] of 26.6 µM and a GI50 [13] of 8.33 µM. For the same compound, the TGI [13] was 25.7 µM, the GI50 [14] was 7.97 µM and the TGI [14] was 21 µM. It also gave a GI50 [15] of 14 µM, a TGI [15] of 27.2 µM and a GI50 [16] of 8.48 µM. It also gave a TGI [16] of 20.8 µM, a GI50 [17] of 2.46 µM and a TGI [17] of 6.53 µM. The GI50 [18] was 12.4 µM, the TGI [18] was 25.2 µM and the GI50 [19] was 11.1 µM. For the same compound, the TGI [19] was 23.6 µM, the GI50 [20] was 11.3 µM and the TGI [20] was 23.5 µM. It also gave a GI50 [21] of 4.72 µM, a TGI [21] of 18.1 µM and a GI50 [22] of 2.08 µM. It also gave a TGI [22] of 6.37 µM, a GI50 [23] of 5.63 µM and a TGI [23] of 19.7 µM. The GI50 [24] was 6.71 µM, the TGI [24] was 24.8 µM and the GI50 [25] was 12.6 µM. It also gave a TGI [25] of 25.3 µM, a GI50 [26] of 5.99 µM and a TGI [26] of 19.5 µM. The GI50 [27] was 10.5 µM, the TGI [27] was 23 µM and the GI50 [28] was 8.6 µM. It also gave a TGI [28] of 21 µM, a GI50 [29] of 4.62 µM and a TGI [29] of 18.1 µM.

From PubChem BioAssay (NCI)
